A short description of series [1]: Liver microsomal metabolic stability, human liver microsomes (HLM). Conditions: human, liver microsomes.
Series [2] addresses USP1/UAF1 enzyme (Homo sapiens, UniProt O94782). Briefly: USP1/UAF1 deubiquitination assay (ubiquitin-rhodamine 110 substrate). Format: biochemical. To be noted: read-out: USP1 IC50 (Ub-Rho). The procedure, abridged: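 0.05 nM USP1/UAF1 was preincubated 10 min with compounds (dose response from 10 μM) in 50 mM Tris-HCl pH 7.8, 0.5 mM EDTA, 0.01% BSA, 1 mM DTT, 0.01% Tween-20. 150 nM ubiquitin-rhodamine 110 started the reaction, read kinetically 30 min at Ex480/Em540; IC50 by four-parameter fit versus no-enzyme and DMSO controls.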

The nature of series [3]: ADME solubility determination in PBS at pH 2.0 and pH 7.4. Format: physicochemical. To be noted: phosphate buffered saline, 25 °C, thermodynamic from solid. The method, then:
Certain Compounds of the Disclosure were assessed for ADME solubility at pH 2.0 and pH 7.4.
Stock solutions were prepared by adding each compound to DMSO at a concentration of 10 mM. Samples were prepared by adding 50 μL of each stock solution to separate vials. The vials were loaded onto a 96-well rack and dried. 500 μL of Phosphate Buffered Saline (PBS) pH 7.4 or PBS pH 2.0 were added into each vial. The vials were then shaken at 25° C. and 1,100 rpm for 24 hours.
After 24 hours, the vials were centrifuged at 3220 G and 25° C. for 30 minutes. The supernatant fluid was analyzed by LC-MS/MS against a standard of known concentration. The solubility of each sample was then calculated using the equation below: […]
where DF is the dilution factor.

Series [4] is described as follows: Liver microsomal metabolic stability, rat liver microsomes (RLM). To be noted: rat, liver microsomes, t1/2 (min) in RLM, 1 μM compound, 1 mg/mL microsomes, NADPH.
Setting [5] is: pH 2, aqueous buffer, PBS pH 2.0, 25° C., read-out: Solubility at pH 2.0.
The mark [6] stands for this setting: pH 7.4, aqueous buffer, PBS pH 7.4, 25° C., read-out: Solubility at pH 7.4.

Structures are written as SMILES. Read-outs that look alike come from different tables or passages of the source. A value given as a limit tells only on which side of the number the result lay.

Sequence of USP1/UAF1 enzyme (O94782 whole entry): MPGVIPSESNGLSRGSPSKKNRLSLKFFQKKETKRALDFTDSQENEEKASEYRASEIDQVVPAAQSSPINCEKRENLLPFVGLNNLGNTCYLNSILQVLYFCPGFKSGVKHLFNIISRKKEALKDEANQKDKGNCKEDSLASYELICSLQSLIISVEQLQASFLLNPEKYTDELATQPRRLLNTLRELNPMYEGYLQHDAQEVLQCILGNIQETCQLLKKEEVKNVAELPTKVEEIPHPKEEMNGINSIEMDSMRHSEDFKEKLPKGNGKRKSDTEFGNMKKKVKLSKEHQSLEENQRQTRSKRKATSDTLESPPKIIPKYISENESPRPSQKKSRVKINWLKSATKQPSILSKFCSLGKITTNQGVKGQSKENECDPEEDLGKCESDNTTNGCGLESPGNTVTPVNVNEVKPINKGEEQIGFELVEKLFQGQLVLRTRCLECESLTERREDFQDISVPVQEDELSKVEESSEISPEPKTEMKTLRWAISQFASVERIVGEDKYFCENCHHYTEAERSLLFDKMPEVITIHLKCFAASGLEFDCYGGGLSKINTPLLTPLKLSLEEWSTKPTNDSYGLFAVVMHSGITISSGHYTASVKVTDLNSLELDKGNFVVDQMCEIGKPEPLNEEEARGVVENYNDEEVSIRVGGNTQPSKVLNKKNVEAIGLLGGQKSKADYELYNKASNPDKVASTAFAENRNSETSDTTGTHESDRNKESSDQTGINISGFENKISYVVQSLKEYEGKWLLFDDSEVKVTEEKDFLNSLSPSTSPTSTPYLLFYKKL
Sequence of USP1/UAF1 enzyme (Q8TAF3 whole entry partner): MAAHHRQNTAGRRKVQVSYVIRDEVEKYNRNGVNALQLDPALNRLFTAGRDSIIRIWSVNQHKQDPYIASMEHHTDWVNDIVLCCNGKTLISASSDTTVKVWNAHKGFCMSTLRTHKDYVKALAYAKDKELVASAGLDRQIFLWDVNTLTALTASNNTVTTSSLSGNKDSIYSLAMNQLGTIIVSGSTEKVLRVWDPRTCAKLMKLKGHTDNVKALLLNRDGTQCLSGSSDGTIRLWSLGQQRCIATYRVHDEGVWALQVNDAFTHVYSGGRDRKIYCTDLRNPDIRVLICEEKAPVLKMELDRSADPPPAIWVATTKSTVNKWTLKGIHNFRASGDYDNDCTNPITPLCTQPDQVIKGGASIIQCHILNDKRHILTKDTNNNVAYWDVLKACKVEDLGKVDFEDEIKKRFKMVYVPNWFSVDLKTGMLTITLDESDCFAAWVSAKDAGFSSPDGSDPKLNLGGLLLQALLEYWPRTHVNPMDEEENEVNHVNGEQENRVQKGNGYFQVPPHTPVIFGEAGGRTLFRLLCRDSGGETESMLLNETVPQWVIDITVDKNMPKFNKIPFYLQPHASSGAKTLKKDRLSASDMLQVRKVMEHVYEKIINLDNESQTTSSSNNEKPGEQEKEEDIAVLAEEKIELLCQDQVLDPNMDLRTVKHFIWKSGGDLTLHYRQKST

`CCn1cc(C(F)(F)F)nc1-c1ccc([C@H](C)N2C(=O)CCn3nc(-c4c(Cl)cnn4C(C)C)nc32)cc1OC` [Example 179]: the half-life at 1 μM in series [1] and in series [4] was under 25 min throughout. Also, the IC50 in series [2] lay within 100 to 500 nM. The solubility at 24 h in series [3] (setting [5]) is at least 10 µM; in series [3] (setting [6]), under 10 µM.

As to `CCn1cc(C(F)(F)F)nc1-c1c(F)cc(CN2C(=O)CCn3nc(-c4c(Cl)cnn4C(C)C)nc32)cc1OC` [Example 187], the half-life at 1 μM in series [1] was over 25 min; in series [4], under 25 min. Moreover, the IC50 in series [2] is 100 to 500 nM. Moreover, the solubility at 24 h in series [3] (setting [5]) and in series [3] (setting [6]) was under 10 µM throughout.

`COc1cc(-c2nc(C(F)(F)F)cn2C(C)C)c(F)cc1CN1C(=O)CCn2nc(-c3c(OC)ncnc3C3CC3)nc21` [Example 202]: the half-life at 1 μM in series [1] and in series [4] was over 25 min throughout. In series [2], the IC50 is under 100 nM. For the same compound, the solubility at 24 h in series [3] (setting [5]) and in series [3] (setting [6]) was under 10 µM each time.

On to `COc1ncnc(C2CC2)c1-c1nc2n(n1)CCC(=O)N2[C@@H](C)c1ccc(-c2nc(C(F)(F)F)c(Br)n2C)cc1` [Example 205], for which the values for the half-life at 1 μM in series [1] and in series [4] were under 25 min and over 25 min, respectively. Besides, in series [2], the IC50 was under 100 nM. In addition, the solubility at 24 h in series [3] (setting [5]) was under 10 µM; in series [3] (setting [6]), at least 10 µM.

For the compound `COc1ccnc(C2CC2)c1-c1nc2n(n1)CCC(=O)N2Cc1ccc(-c2nc(C(F)(F)F)cn2C(C)C)c(F)c1` [Example 207], the results for the half-life at 1 μM in series [1] and in series [4] were under 25 min and over 25 min, respectively. In series [2], the IC50 lay within 100 to 500 nM. The solubility at 24 h in series [3] (setting [5]) was at least 10 µM; in series [3] (setting [6]) it was under 10 µM.

Regarding `CCn1cc(C(F)(F)F)nc1-c1ccc([C@@H](C)N2C(=O)CCn3nc(-c4c(OC(F)F)ncnc4C4CC4)nc32)cc1` [Example 208], the half-life at 1 μM in series [1] is over 25 min; in series [4], under 25 min. The IC50 in series [2] was under 100 nM. In addition, the solubility at 24 h in series [3] (setting [5]) and in series [3] (setting [6]) was at least 10 µM throughout.

As for `CCn1cc(C(F)(F)F)nc1-c1ccc([C@H](C)N2C(=O)CCn3nc(-c4c(OC(F)F)ncnc4C4CC4)nc32)cc1` [Example 209], the half-life at 1 μM in series [1] and in series [4] was under 25 min throughout. For the same compound, in series [2], the IC50 is under 100 nM. The solubility at 24 h in series [3] (setting [5]) is at least 10 µM; in series [3] (setting [6]), under 10 µM.

`CCn1cc(C(F)(F)F)nc1-c1ccc(CN2C(=O)CCn3nc(-c4c(Cl)cnn4C(C)C)c(C#N)c32)cc1` [Example 223, 2-(4-chloro-1-isopropyl-1H-pyrazol-5-yl)-4-(4-(1-ethyl-4-(trifluoromethyl)-1H-imidazol-2-yl)benzyl)-5-oxo-4,5,6,7-tetrahydropyrazolo[1,5-α]pyrimidine-3-carbonitrile]: the figures for the half-life at 1 μM in series [1] and in series [4] were under 25 min and over 25 min, respectively. Further, the IC50 in series [2] is under 100 nM. Further, the solubility at 24 h in series [3] (setting [5]) and in series [3] (setting [6]) was under 10 µM each time.

As to `CC(C)n1ncc(Cl)c1-c1cc2n(n1)CC(O)C(=O)N2Cc1ccc(-c2nc(C(F)(F)F)cn2C)cc1` (stereo not drawn) [Example 231, 2-(4-chloro-1-isopropyl-1H-pyrazol-5-yl)-6-hydroxy-4-(4-(1-methyl-4-(trifluoromethyl)-1H-imidazol-2-yl)benzyl)-6,7-dihydropyrazolo[1,5-α]pyrimidin-5(4H)-one], the half-life at 1 μM in series [1] and in series [4] was over 25 min in each case. In addition, the IC50 in series [2] lay within 100 to 500 nM. Moreover, the solubility at 24 h in series [3] (setting [5]) and in series [3] (setting [6]) was under 10 µM each time.

On to `CCn1cc(C(F)(F)F)nc1-c1ccc(NC2CCCn3nc(-c4c(Cl)cnn4C(C)C)nc32)cc1F` (centres unmarked) [Example 257, 2-(4-chloro-1-isopropyl-1H-pyrazol-5-yl)-N-(4-(1-ethyl-4-(trifluoromethyl)-1H-imidazol-2-yl)-3-fluorophenyl)-5,6,7,8-tetrahydro-[1,2,4]triazolo[1,5-a]pyridin-8-amine], for which the half-life at 1 μM in series [1] and in series [4] was over 25 min in each case. For the same compound, the half-inhibitory concentration (IC50) in series [2] is 100 to 500 nM. For the same compound, the solubility at 24 h in series [3] (setting [5]) and in series [3] (setting [6]) was under 10 µM in each case.

As for `COc1cccnc1-c1ccc(CN2C(=O)CCn3nc(-c4c(Cl)cnn4C(C)C)cc32)cc1Cl` [Example 288], the half-life at 1 μM in series [1] and in series [4] was under 25 min throughout. Also, in series [2], the IC50 was under 100 nM. Moreover, the solubility at 24 h is at least 10 µM in series [3] (setting [5]) and under 10 µM in series [3] (setting [6]).

On to `CC(C)Oc1cccnc1-c1ccc(CN2C(=O)CCn3nc(-c4c(Cl)cnn4C(C)C)cc32)cc1Cl` [Example 310], for which the half-life at 1 μM in series [1] and in series [4] was under 25 min in each case. Besides, the IC50 in series [2] was under 100 nM. Further, the solubility at 24 h is at least 10 µM in series [3] (setting [5]) and under 10 µM in series [3] (setting [6]).

Consider `CC(C)n1ncc(Cl)c1-c1cc2n(n1)CCC(=O)N2Cc1ccc(-c2ncccc2N(C)C)c(Cl)c1` [Example 312], for which the half-life at 1 μM in series [1] and in series [4] was under 25 min each time. The IC50 in series [2] was under 100 nM. Moreover, the values for the solubility at 24 h in series [3] (setting [5]) and in series [3] (setting [6]) were at least 10 µM and under 10 µM, respectively.

`CCn1cc(C(F)(F)F)nc1-c1ccc(CN2C(=O)CCn3nc(-c4c(C(F)F)cnn4C(C)C)cc32)cc1F` [Example 328, 2-(4-(difluoromethyl)-1-isopropyl-1H-pyrazol-5-yl)-4-(4-(1-ethyl-4-(trifluoromethyl)-1H-imidazol-2-yl)-3-fluorobenzyl)-6,7-dihydropyrazolo[1,5-α]pyrimidin-5(4H)-one]: the half-life at 1 μM in series [1] and in series [4] was over 25 min throughout. In series [2], the IC50 lay within 100 to 500 nM. Also, the solubility at 24 h is at least 10 µM in series [3] (setting [5]) and under 10 µM in series [3] (setting [6]).

With `CCn1cc(C(F)(F)F)nc1-c1ccc([C@@H](C)n2c(=O)ccn3nc(-c4c(OC)ncnc4C4CC4)nc23)cc1F` [Example 341, (R)-2-(4-cyclopropyl-6-methoxypyrimidin-5-yl)-4-(1-(4-(1-ethyl-4-(trifluoromethyl)-1H-imidazol-2-yl)-3-fluorophenyl)ethyl)-[1,2,4]triazolo[1,5-a]pyrimidin-5(4H)-one], the half-life at 1 μM in series [1] and in series [4] was over 25 min each time. Moreover, the IC50 in series [2] is under 100 nM. Besides, the solubility at 24 h in series [3] (setting [5]) and in series [3] (setting [6]) was at least 10 µM each time.

As to `CCn1cc(C(F)(F)F)nc1-c1ccc([C@H](C)n2c(=O)ccn3nc(-c4c(OC)ncnc4C4CC4)nc23)cc1F` [Example 342, (S)-2-(4-cyclopropyl-6-methoxypyrimidin-5-yl)-4-(1-(4-(1-ethyl-4-(trifluoromethyl)-1H-imidazol-2-yl)-3-fluorophenyl)ethyl)-[1,2,4]triazolo[1,5-a]pyrimidin-5(4H)-one], the half-life at 1 μM in series [1] and in series [4] was over 25 min throughout. Besides, the IC50 in series [2] is under 100 nM. Moreover, the solubility at 24 h in series [3] (setting [5]) and in series [3] (setting [6]) was at least 10 µM in each case.

For orientation: half-life means the time in which the quantity being followed falls by half. Usually IC50 stands for the midpoint of a concentration-inhibition curve. In general, solubility refers to how much of the substance goes into solution per volume.

The values are drawn from patent US20230219965A1 (KSQ Therapeutics, Inc., priority 2020, published 2023).
